Test results published in patent US20250145606A1 (Arcus Biosciences, Inc., priority 2023, published 2025).

Legend:
[1] = test system: Phospho-KIT (Y703) in M07e cells; assay: Phospho-KIT (Y703) cellular assay in M07e cells; type: cell-based; conditions: M-07e; Phospho-KIT (Y703), M07e cells; read-out: M07e Cell IC50
Procedure: Phospho-KIT (Y703) Cellular Assay in M07e Cells
The day prior to assay, M07e cells (DSMZ, catalog #ACC 104) were serum starved. Cells were centrifuged and cell pellet resuspended in OptiMEM (Gibco, catalog #31985062) to a density of 1×10^6-2.5×10^6 cells per mL. Cells were then incubated overnight at 5% CO2 and 37° C. in an appropriately sized flask. On the day of the experiment, an 11 point, half log titration of test compound was pre-dispensed into 96-well round bottom polypropylene plates (Corning, catalog #3365). The serum starved M07e cells were centrifuged and resuspended to a cell density of 1×10^6 cells per mL with DPBS (Gibco, catalog #14190-144). Live/Dead Green Fixable viability dye (Invitrogen, catalog #L34970) was added as 1 μL/1 mL of cell suspension. Cells were then incubated in the dark at 4° C. for 30 min. Cells were washed by centrifugation and resuspension with DPBS+0.5% BSA (Gemini Bio Products, catalog #700110/100, 30% BSA solution). Cells were resuspended, separated into two equal volumes and again centrifuged. Cell pellets were resuspended with OptiMEM™ to a cell density of 1×10^6 cells per mL. Cells were then added to the appropriate compound plate at 100,000 cells per well in 100 μL and mixed. Plates were incubated at 5% CO2 and 37° C. for 50 min. Stem Cell Factor, SCF (R&D Systems, #255-SC/CF) was diluted in OptiMEM to 1 μg/mL and added to all wells as 10 μL for a final concentration of 90.9 ng/mL. Plates were incubated at 5% CO2 and 37° C. for 10 min. Incubation was stopped by addition of 110 μL 4% paraformaldehyde solution in PBS (Life Technologies, catalog #J19943.K2). Plates were incubated at rt for at least 15 min. Plates were then centrifuged and supernatant removed by flicking. Cells were washed once by resuspension in 200 μL DPBS+0.5% BSA, centrifuged, and supernatant removed by flicking. Cells were resuspended in 100 μL 1X Permeabilization buffer (Invitrogen, catalog #88882400) and plates incubated at rt for 30 min. Plates were centrifuged, supernatant removed by flicking, and cells resuspended in 50 μL primary antibody, anti-phospho-c-KIT (Tyr703) (Cell Signaling, catalog #3073), diluted to 1 μg/mL with permeabilization buffer. Plates were incubated at rt for 1 h. Plates were centrifuged, supernatant removed, and cells resuspended with 200 μL DPBS+0.5% BSA. Plates were again centrifuged, supernatant removed by flicking, and cells resuspended in 100 μL secondary antibody, goat anti-rabbit AlexaFluor647 (AF647) (Invitrogen, catalog #A21244) diluted to 1 μg/mL with DPBS+0.5% BSA. Plates were incubated at rt for 30 min. followed by centrifugation, supernatant removal, and cell resuspension with 200 μL DPBS+0.5% BSA. Cells were washed again by centrifugation, supernatant removal, and cell resuspension with 200 μL DPBS+0.5% BSA. Samples were then read by flow cytometry. The Forward: Side scatter plot was gated and that population was gated for live cells based on the Live/Dead Green staining. The geometric mean of AF647 of the live cell population was recorded. Percentage maximum activity in each test well was calculated based on DMSO (100% activity) and positive control treated cell wells (0% activity). The potencies (IC50 values) of test compounds were determined using a standard 4-parameter non-linear regression fit.

[2] = target: CSF1R (Homo sapiens (Human), UniProt P07333); assay: Inhibition of CSF1R kinase activity (HTRF KinEASE-TK); conditions: biochemical, HTRF KinEASE-TK
Procedure, shortened: (§1)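 Human kinases were preincubated 1 h at rt with a 22-point 1:2 compound titration, then run 120 min at rt with biotinylated TK peptide and ATP (2× mix: c-Kit 16 μM, PDGFRα 1 μM, PDGFRβ 40 μM, CSF1R 20 μM). Phosphopeptide was read by HTRF TR-FRET (665/620 nm), and IC50s came from 4-parameter fits.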

[3] = target: c-Kit (Homo sapiens (Human), UniProt P10721); assay: Inhibition of c-Kit kinase activity (HTRF KinEASE-TK); type: biochemical; conditions: biochemical, HTRF KinEASE-TK
Procedure, shortened: as §1

[4] = target: PDGFRα (Homo sapiens (Human), UniProt P16234); assay: Inhibition of PDGFRα kinase activity (HTRF KinEASE-TK); conditions: biochemical, HTRF KinEASE-TK
Procedure, shortened: as §1

[5] = target: PDGFRβ (Homo sapiens (Human), UniProt P09619); assay: Inhibition of PDGFRβ kinase activity (HTRF KinEASE-TK); conditions: biochemical, HTRF KinEASE-TK
Procedure, shortened: as §1

Sequence of CSF1R (P07333 20-972): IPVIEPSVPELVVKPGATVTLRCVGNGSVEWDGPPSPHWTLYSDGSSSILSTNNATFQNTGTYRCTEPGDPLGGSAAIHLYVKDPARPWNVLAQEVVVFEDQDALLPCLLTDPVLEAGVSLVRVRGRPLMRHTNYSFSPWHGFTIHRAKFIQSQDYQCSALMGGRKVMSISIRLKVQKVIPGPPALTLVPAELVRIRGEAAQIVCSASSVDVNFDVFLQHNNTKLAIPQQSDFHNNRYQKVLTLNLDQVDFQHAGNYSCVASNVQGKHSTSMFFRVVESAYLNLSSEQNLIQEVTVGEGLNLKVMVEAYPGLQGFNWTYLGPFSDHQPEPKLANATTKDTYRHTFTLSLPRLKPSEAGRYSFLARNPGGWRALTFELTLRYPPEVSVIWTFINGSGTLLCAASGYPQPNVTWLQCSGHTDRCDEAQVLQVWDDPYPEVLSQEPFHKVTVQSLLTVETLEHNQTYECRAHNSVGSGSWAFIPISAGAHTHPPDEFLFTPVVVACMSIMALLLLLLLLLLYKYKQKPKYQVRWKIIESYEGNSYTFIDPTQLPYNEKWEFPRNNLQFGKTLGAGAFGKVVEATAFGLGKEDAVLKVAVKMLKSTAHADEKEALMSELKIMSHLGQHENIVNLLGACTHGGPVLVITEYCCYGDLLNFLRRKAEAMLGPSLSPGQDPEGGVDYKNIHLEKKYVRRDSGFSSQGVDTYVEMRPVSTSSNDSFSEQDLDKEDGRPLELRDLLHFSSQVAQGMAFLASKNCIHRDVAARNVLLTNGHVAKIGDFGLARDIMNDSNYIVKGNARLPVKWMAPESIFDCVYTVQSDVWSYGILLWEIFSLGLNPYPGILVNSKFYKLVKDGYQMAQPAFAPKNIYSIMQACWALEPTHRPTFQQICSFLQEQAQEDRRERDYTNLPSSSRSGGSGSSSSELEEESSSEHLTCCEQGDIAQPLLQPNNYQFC
Sequence of c-Kit (P10721 26-976): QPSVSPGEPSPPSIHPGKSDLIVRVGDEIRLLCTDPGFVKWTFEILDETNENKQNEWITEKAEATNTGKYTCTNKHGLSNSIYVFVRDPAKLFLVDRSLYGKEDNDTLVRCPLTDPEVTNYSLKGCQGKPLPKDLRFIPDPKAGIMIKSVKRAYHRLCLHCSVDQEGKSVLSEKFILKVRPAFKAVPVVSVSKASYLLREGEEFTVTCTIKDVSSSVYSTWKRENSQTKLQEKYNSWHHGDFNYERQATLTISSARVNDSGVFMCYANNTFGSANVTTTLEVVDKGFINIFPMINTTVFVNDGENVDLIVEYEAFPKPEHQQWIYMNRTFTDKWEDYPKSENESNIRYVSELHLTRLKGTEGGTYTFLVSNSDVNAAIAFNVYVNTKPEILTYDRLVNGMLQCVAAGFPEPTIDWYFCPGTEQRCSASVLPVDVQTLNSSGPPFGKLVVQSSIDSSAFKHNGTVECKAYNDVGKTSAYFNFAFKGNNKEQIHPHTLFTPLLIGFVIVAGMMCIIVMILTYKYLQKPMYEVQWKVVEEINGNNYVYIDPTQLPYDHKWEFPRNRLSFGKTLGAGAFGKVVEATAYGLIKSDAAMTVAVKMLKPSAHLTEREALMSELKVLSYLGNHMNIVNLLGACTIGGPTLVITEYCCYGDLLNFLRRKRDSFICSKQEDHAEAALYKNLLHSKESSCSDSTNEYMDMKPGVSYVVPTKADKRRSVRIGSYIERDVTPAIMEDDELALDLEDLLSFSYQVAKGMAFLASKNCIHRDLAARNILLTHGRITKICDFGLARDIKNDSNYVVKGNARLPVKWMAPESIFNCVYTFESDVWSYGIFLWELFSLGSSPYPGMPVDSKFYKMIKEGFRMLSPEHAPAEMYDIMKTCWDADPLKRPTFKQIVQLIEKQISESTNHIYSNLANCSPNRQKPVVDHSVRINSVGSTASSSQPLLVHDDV
Sequence of PDGFRβ (P09619 33-1106): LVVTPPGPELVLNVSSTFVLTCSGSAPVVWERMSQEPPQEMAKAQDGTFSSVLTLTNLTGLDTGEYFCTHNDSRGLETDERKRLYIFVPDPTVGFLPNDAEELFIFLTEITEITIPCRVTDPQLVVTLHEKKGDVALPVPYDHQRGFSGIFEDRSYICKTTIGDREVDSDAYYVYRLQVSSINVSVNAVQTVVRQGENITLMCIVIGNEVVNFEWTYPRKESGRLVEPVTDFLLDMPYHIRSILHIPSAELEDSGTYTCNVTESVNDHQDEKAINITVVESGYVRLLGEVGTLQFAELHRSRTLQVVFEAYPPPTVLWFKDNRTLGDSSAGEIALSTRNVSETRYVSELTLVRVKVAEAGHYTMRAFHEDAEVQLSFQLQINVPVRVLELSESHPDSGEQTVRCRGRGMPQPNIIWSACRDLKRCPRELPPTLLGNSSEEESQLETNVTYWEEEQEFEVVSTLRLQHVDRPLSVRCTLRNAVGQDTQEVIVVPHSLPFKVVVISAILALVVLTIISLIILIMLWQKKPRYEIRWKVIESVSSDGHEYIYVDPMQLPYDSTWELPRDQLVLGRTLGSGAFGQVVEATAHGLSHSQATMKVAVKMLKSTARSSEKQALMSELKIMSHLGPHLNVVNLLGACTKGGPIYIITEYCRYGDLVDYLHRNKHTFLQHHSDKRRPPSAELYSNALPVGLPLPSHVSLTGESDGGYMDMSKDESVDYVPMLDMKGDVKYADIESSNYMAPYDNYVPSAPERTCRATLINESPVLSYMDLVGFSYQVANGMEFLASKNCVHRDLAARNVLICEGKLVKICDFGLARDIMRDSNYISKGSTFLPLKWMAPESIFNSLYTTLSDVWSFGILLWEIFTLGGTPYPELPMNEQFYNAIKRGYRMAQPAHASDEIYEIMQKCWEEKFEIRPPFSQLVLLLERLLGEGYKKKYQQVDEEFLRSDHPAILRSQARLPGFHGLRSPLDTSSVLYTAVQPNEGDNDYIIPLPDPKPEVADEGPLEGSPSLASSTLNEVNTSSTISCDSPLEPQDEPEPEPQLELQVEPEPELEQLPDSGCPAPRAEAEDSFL
Sequence of PDGFRα (P16234 24-1089): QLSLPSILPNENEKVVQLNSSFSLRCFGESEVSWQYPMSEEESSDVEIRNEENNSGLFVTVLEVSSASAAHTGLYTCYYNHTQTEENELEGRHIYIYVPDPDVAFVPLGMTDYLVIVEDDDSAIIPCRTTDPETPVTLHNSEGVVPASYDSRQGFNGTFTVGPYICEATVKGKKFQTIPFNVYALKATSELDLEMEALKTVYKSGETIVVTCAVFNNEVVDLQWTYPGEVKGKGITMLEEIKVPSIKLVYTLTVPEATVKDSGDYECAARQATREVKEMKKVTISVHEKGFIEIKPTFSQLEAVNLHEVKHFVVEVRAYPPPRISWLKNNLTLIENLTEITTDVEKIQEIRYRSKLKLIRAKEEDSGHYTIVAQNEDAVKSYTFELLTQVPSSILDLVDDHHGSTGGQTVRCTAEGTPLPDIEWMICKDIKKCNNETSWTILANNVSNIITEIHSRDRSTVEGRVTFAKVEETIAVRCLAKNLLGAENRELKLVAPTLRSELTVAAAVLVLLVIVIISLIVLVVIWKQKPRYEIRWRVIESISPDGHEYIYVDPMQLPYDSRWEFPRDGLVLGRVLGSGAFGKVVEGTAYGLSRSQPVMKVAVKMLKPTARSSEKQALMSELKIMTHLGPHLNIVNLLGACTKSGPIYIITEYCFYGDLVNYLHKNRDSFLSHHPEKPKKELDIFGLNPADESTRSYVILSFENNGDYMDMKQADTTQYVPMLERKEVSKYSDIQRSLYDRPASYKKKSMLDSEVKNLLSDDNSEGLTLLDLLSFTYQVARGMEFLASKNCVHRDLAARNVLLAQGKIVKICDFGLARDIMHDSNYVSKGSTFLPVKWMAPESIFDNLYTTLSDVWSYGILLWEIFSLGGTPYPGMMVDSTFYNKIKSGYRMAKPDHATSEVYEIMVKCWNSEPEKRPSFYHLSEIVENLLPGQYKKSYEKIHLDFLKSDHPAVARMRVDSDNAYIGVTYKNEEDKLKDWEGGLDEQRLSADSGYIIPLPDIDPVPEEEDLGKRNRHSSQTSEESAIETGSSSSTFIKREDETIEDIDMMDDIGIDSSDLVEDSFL

Structure (SMILES) | IC50 [1] | IC50 [2] | IC50 [3] | IC50 [4] | IC50 [5]
Cc1ncc(C(=O)Nc2cc(C(=O)N[C@H]3C[C@@H]3c3ccccc3)c(F)cc2C)s1 [Example 30, N-[4-Fluoro-2-methyl-5-[[(1S,2R)-2-phenylcyclopropyl]carbamoyl]phenyl]-2-methyl-1,3-thiazole-5-carboxamide] | < 100 nM | > 1000 nM | 100 to 1000 nM | – | –
Cc1ncc(C(=O)Nc2cc(C(=O)Nc3ccc(CC(F)(F)F)nc3)c(F)cc2C)s1 [Example 98, N-[4-fluoro-2-methyl-5-[[6-(2,2,2-trifluoroethyl)pyridin-3-yl]carbamoyl]phenyl]-2-methyl-1,3-thiazole-5-carboxamide] | < 100 nM | > 1000 nM | < 100 nM | – | –
Cc1ncc(C(=O)Nc2cc(C(=O)Nc3cncc(C(F)(F)F)n3)c(F)cc2C)s1 [Example 33, N-[4-fluoro-2-methyl-5-[[6-(trifluoromethyl)pyrazin-2-yl]carbamoyl]phenyl]-2-methyl-1,3-thiazole-5-carboxamide] | 100 to 1000 nM | > 1000 nM | < 100 nM | – | –
Cc1cc(F)c(C(=O)Nc2cncc(C(F)(F)F)c2)cc1NC(=O)c1cnc(N)s1 [Example 249, 2-Amino-N-[4-fluoro-2-methyl-5-[[5-(trifluoromethyl)pyridin-3-yl]carbamoyl]phenyl]-1,3-thiazole-5-carboxamide] | < 100 nM | < 100 nM | < 100 nM | – | –
Cc1ncc(C(=O)Nc2cc(C(=O)NCc3cccnc3)c(F)cc2C)s1 [Example 12, N-(4-Fluoro-2-methyl-5-((pyridin-3-ylmethyl)carbamoyl)phenyl)-2-methylthiazole-5-carboxamide] | 100 to 1000 nM | – | 100 to 1000 nM | – | –
Cc1ncc(C(=O)Nc2cc(C(=O)Nc3cncc(CC(F)(F)F)c3)c(F)cc2C)s1 [Example 81, N-[4-fluoro-2-methyl-5-[[5-(2,2,2-trifluoroethyl)pyridin-3-yl]carbamoyl]phenyl]-2-methyl-1,3-thiazole-5-carboxamide] | < 100 nM | > 1000 nM | < 100 nM | – | –
Cc1ncc(C(=O)Nc2cc(C(=O)Nc3cncc(C(F)(F)F)c3)c(F)cc2C)s1 [Example 77, N-[4-fluoro-2-methyl-5-[[5-(trifluoromethyl)pyridin-3-yl]carbamoyl]phenyl]-2-methyl-1,3-thiazole-5-carboxamide] | < 100 nM | > 1000 nM | < 100 nM | – | –
Cc1ncc(C(=O)Nc2cc(C(=O)Nc3cncc(CC4CC4)n3)c(F)cc2C)s1 [Example 34, N-[5-[[6-(cyclopropylmethyl)pyrazin-2-yl]carbamoyl]-4-fluoro-2-methylphenyl]-2-methyl-1,3-thiazole-5-carboxamide] | < 100 nM | > 1000 nM | < 100 nM | – | –
COc1cnc(NC(=O)c2cc(NC(=O)c3cnc(C)s3)c(C)cc2F)cn1 [Example 23, N-[4-Fluoro-5-[(5-methoxypyrazin-2-yl)carbamoyl]-2-methylphenyl]-2-methyl-1,3-thiazole-5-carboxamide] | 100 to 1000 nM | > 1000 nM | < 100 nM | – | –
Cc1ncc(C(=O)Nc2cc(C(=O)Nc3cnc(C(C)C)cn3)c(F)cc2C)s1 [Example 28, N-[4-fluoro-2-methyl-5-[(5-propan-2-ylpyrazin-2-yl)carbamoyl]phenyl]-2-methyl-1,3-thiazole-5-carboxamide] | < 100 nM | > 1000 nM | < 100 nM | – | –
Nc1ncc(C(=O)Nc2cc(C(=O)Nc3ccc(CC(F)(F)F)cn3)c(F)cc2F)s1 [Example 221, 2-Amino-N-[2,4-difluoro-5-[[5-(2,2,2-trifluoroethyl)pyridin-2-yl]carbamoyl]phenyl]-1,3-thiazole-5-carboxamide] | < 100 nM | 100 to 1000 nM | < 100 nM | – | –
Cc1ncc(C(=O)Nc2cc(C(=O)Nc3ccc(C(F)F)nc3)c(F)cc2C)s1 [Example 54, N-[5-[[6-(difluoromethyl)pyridin-3-yl]carbamoyl]-4-fluoro-2-methylphenyl]-2-methyl-1,3-thiazole-5-carboxamide] | < 100 nM | – | < 100 nM | – | –
Cc1cc(F)c(C(=O)Nc2ccn(CCO)n2)cc1NC(=O)c1cnc(N)s1 [Example 144, 2-Amino-N-[4-fluoro-5-[[1-(2-hydroxyethyl)pyrazol-3-yl]carbamoyl]-2-methylphenyl]-1,3-thiazole-5-carboxamide] | – | > 1000 nM | < 100 nM | > 1000 nM | > 1000 nM
Cc1cc(F)c(C(=O)Nc2ccc3c(c2)NC(=O)C3(C)C)cc1NC(=O)c1cnc(N)s1 [Example 183, 2-Amino-N-[5-[(3,3-dimethyl-2-oxo-1H-indol-6-yl)carbamoyl]-4-fluoro-2-methylphenyl]-1,3-thiazole-5-carboxamide] | – | 100 to 1000 nM | < 100 nM | < 100 nM | < 100 nM
Cc1cc(F)c(C(=O)Nc2ccc(OC3CC3)cn2)cc1NC(=O)c1cnc(NC(=O)OC2CCC2)s1 [Example 106] | – | > 1000 nM | < 100 nM | > 1000 nM | 100 to 1000 nM
COc1ccc(NC(=O)c2cc(NC(=O)c3cnc(N)s3)c(F)cc2F)nc1 [Example 211, 2-Amino-N-[2,4-difluoro-5-[(5-methoxypyridin-2-yl)carbamoyl]phenyl]-1,3-thiazole-5-carboxamide] | – | > 1000 nM | < 100 nM | > 1000 nM | > 1000 nM
Cc1cc(F)c(C(=O)NCc2ccn(C(C)C)n2)cc1NC(=O)c1cnc(N)s1 [Example 253, 2-Amino-N-[4-fluoro-2-methyl-5-[(1-propan-2-ylpyrazol-3-yl)methylcarbamoyl]phenyl]-1,3-thiazole-5-carboxamide] | – | > 1000 nM | < 100 nM | 100 to 1000 nM | 100 to 1000 nM
Cc1nnc(NC(=O)c2cc(NC(=O)c3cnc(N)s3)c(C)cc2F)s1 [Example 162, 2-Amino-N-[4-fluoro-2-methyl-5-[(5-methyl-1,3,4-thiadiazol-2-yl)carbamoyl]phenyl]-1,3-thiazole-5-carboxamide] | – | 100 to 1000 nM | < 100 nM | > 1000 nM | > 1000 nM
Cc1cc(F)c(C(=O)Nc2ccccc2F)cc1NC(=O)c1cnc(N)s1 [Example 234, 2-Amino-N-[4-fluoro-5-[(2-fluorophenyl)carbamoyl]-2-methylphenyl]-1,3-thiazole-5-carboxamide] | – | > 1000 nM | < 100 nM | > 1000 nM | > 1000 nM
Cc1cc(F)c(C(=O)Nc2ccc(OC3CC3)cn2)cc1NC(=O)c1cnc(C(F)F)s1 [Example 59, N-[5-[(5-Cyclopropyloxypyridin-2-yl)carbamoyl]-4-fluoro-2-methylphenyl]-2-(difluoromethyl)-1,3-thiazole-5-carboxamide] | – | > 1000 nM | < 100 nM | > 1000 nM | > 1000 nM
Cc1cc(F)c(C(=O)Nc2ccc(C(C)(C)O)cn2)cc1NC(=O)c1cnc(N)s1 [Example 113, 2-Amino-N-[4-fluoro-5-[[5-(2-hydroxypropan-2-yl)pyridin-2-yl]carbamoyl]-2-methylphenyl]-1,3-thiazole-5-carboxamide] | – | 100 to 1000 nM | < 100 nM | 100 to 1000 nM | < 100 nM
